Patent publication US20250186364A1, “COMBINATION OF ANTISPASMODIC AND ANESTHETIC AGENTS FOR TOPICAL PRODUCTS AND THEIR METHOD OF USE” (priority 2023, published 2025)
Entries after “also recorded” stand apart in the source; their conditions may differ.

Assays:
[1] = system: mouse extensor digitorum longus muscles; test: Isolated mouse muscle contraction study
Experimental: FIG. 4 is a schematic diagram of a validated isolated mouse muscle contraction study. Muscles were anchored at one end to the chamber floor and connected at the other end to a force transducer. After establishing a baseline response to the electrical field stimulation, HD was added to the buffer at concentrations ranging from 0.01% w/w to 1% w/w, and the impact on muscle contractile force was recorded over time at the frequency of 150 Hz. Additionally, muscles were subjected to varying frequencies of electrical stimulation to evaluate the frequency-dependent effects of HD.
This subsequent study was aimed to elucidate the specific effects of HD on isolated muscle tissue from mice, to quantify its potential use as a muscle relaxant. The study's design allowed for the controlled assessment of muscle contractility in a physiological buffer, minimizing external variables present in in vivo models. Muscle Isolation: The mouse extensor digitorum longus muscles were carefully dissected and mounted in a tissue bath super-fused with oxygenated physiological buffer, ensuring tissue viability throughout the experiment (FIG. 4). Baseline Measurement: Initial contractile responses were established via electrical stimulation at various frequencies, setting a comparative baseline for subsequent HD application effects. HD Application: Differing concentrations of HD (ranging from 0.01% to 1%) were introduced to the buffer. The muscle's contractile force (amplitude, which is the maximum contractile force) was determined to assess HD's concentration-dependent effects at a fixed frequency of 150 Hz (FIG. 6). Stimulation Frequency Adjustment: To explore the frequency-dependent nature of HD's action, muscles underwent varied frequencies of electrical stimulation at a fixed concentration of 0.5% of HD. This protocol aimed to simulate conditions of sporadic muscle spasms.

hairless mice = test: Rotarod performance study in hairless mice; type: in vivo; conditions: 5% w/w HD topical
Experimental: FIG. 7 is an illustration of a Rota Rod apparatus in the present disclosure. Once the mice were trained, the rod was rotated at a constant speed of 20 rpm. Then the mice were placed on the rotating rod and length of time they could stay on the rotating rod was measured in seconds.
The Rotarod study was to investigate the skeletal muscle relaxant effects of HD, specifically its impact on motor coordination and balance in hairless mice. The study was structured to assess both the kinetics of HD's effect over time and its efficacy in inducing muscle relaxation. Efficacy of HD was determined post-treatment at intervals of 15, 30, 60, 75, 90 minutes, and another to evaluate the efficacy, particularly noting the peak effect at 30 minutes post-application. Control and Treatment Groups: Each stage included a control group receiving vehicle (Aloe Vera Gel) and a test group treated with HD, 5% w/w HD (0.5 g) in the vehicle (9.5 g Aloe Vera Gel), prepared right before the study. The topical treatment was applied to the thighs of all four limbs for each mouse.

hind limb muscle = test: Rat hind limb muscle twitch study; type: in vivo, Sprague-Dawley rats
Experimental: FIG. 1 is a schematic diagram of a validated muscle twitch experimental set-up in the present disclosure. Here anesthetized Sprague-Dawley rats were prepared for muscle contraction assessment of their hindlimbs. The hind limbs were shaved and secured at the knee and ankle joints to prevent movement. The distal tendon of the targeted muscle was connected to a high-sensitivity force transducer to measure contractile force with precision. Electrical stimulation was delivered via electrodes positioned on the sciatic nerve to evoke muscle contractions. Vehicle (control study) or 5% w/w of HD was topically applied to the dermal area corresponding to the muscle group under study, ensuring proximity for local diffusion and effect.
A study was performed to evaluate the effects of HD on muscle contractility using a validated in vivo rat model. The experimental setup was meticulously designed to measure the contractile force of the hind limb muscle in response to electrical stimulation of the sciatic nerve, providing a quantitative assessment of muscle relaxation and contraction dynamics in the presence of HD. Anesthetized Sprague-Dawley rats were used for this study, ensuring minimal variability in response to HD application. Hind limbs were shaved and then immobilized at the knee and ankle joints to isolate the effect of the targeted muscle group. The distal tendon of the targeted muscle was connected to a high-sensitivity force transducer for accurate measurement of contractile force. An electrical stimulation was applied via electrodes strategically placed on the sciatic nerve, designed to evoke muscle contractions with controlled frequency to determine amplitude, and duration parameters. A specific concentration of 5% w/w of HD in lubricating lotion, prepared on the same day, was topically applied to the skin overlaying the muscle group under study and the control group received a vehicle (lubricating lotion) treatment under identical conditions.

**Q.** Which “inhibitory effect on muscle contraction” value ([1]; 0.01% HD in buffer, 150 Hz) does the source give for CCCCC(O)CO (stereo not shown) [HD, 1,2-hexanediol] here?
**A.** No significant inhibitory effect; also recorded: minimal effects

**Q.** And the “reduction in contractile force” value ([1]; 0.1% HD in buffer, 150 Hz, vs vehicle controls)?
**A.** ~44%

**Q.** And the “frequency-dependent decrease in torque generation (force-frequency relationship)” value ([1]; 0.5% HD, varied stimulus frequencies, vs vehicle, n=5)?
**A.** inhibition is more complete at higher frequencies of stimulation; also recorded: more significant inhibitory effect

**Q.** What about the “recovery of mice from the muscle relaxant effect (safety)” value (hairless mice) of the same compound?
**A.** all mice recovered

**Q.** What about the “time spent on Rota Rod” value (hairless mice; 30 and 60 minutes post treatment, 20 rpm, vehicle 60 seconds) of the same compound?
**A.** significant decrease

**Q.** And the “recovery from the muscle relaxant effect” value (hairless mice; by 75 minutes)?
**A.** recovery trend

**Q.** What about the “time of most notable muscle relaxant activity post-treatment” value (hairless mice; preliminary experiments (data not shown)) of the same compound?
**A.** 30 min

**Q.** What about the “duration of muscle contraction” value (hind limb muscle; 5% w/w HD topical vs vehicle, p<0.05) of the same compound?
**A.** statistically significant reduction

**Q.** And the “mean percentage decline in force output from initial peak contraction” value (hind limb muscle; 5% w/w HD topical, compared to vehicle group)?
**A.** quantitatively significant

**Q.** What about the “ability to maintain tetanic contraction throughout the stimulus period” value (hind limb muscle; 5% w/w HD topical, electrical stimulation at 150 Hz) of the same compound?
**A.** unable to maintain tetanic contraction; also recorded: failing to maintain tetanic tension
